Assay results from patent US20130281445A1 (priority 2011, published 2013).

target: T1, Choline Kinase alpha enzyme (Homo sapiens, UniProt P35790); experiment: Choline Kinase Alpha Inhibition Assay (coupled NADH absorbance); format: biochemical; details: not given
T1 construct: hChoKα1(M1-V457) (NP_001268); GST (N); made in house; host or cells: E. coli BL21(DE3)
Procedure: An assay buffer solution was prepared which consisted of 100 mM Tris-HCl (pH 7.5), 100 mM KCl, and 10 mM MgCl2. An enzyme buffer containing reagents to final assay concentrations of 290 μM NADH, 2.4 mM phosphoenolpyruvate, 60 μg/mL pyruvate kinase, 20 μg/mL lactate dehydrogenase, 200 μM choline chloride substrate and 20 nM Choline Kinase alpha enzyme was prepared in assay buffer. To 32 μL of this enzyme buffer, in a 96 well plate, was added 2 μL of VRT stock solution in DMSO. The mixture was allowed to equilibrate for 10 mins at 25° C. The enzyme reaction was initiated by the addition of 32 μL stock ATP solution prepared in assay buffer to a final assay concentration of 400 μM. Initial rate data was determined from the rate of change of absorbance at 340 nm (corresponding to stoichiometric consumption of NADH) using a Molecular Devices Spectramax plate reader (Sunnyvale, Calif.) over 15 mins at 25° C. For each IC50 determination, 12 data points covering the VRT concentration range of 0-100 μM were obtained in duplicate (DMSO stocks were prepared from an initial 10 mM VRT stock with subsequent 1:2.5 serial dilutions). IC50 values were calculated from initial rate data using the Prism software package (Prism 4.0a, Graphpad Software, San Diego, Calif.).
hChoKα1(M1-V457) (NP_001268) was codon optimized for E. coli and cloned into a modified pGEX-2T vector. Recombinant GST-tagged ChoKα1 protein was produced in E. coli strain BL21(DE3). After growing cell cultures at 37° C. until the OD600=1, the cultures were induced with 1 mM IPTG for 16 h at 30° C. and the cells were harvested as a pellet (8500 rpm, 4° C., 20 min). The protein was purified using glutathione affinity purification followed by size exclusion via Superdex-200 26/60 (GE Healthcare). See Malito, Enrico et. al., “Journal of Molecular Biology”, Volume 364, Issue 2, pages 136-151 (November 2006).

T1 sequence (P35790 whole entry): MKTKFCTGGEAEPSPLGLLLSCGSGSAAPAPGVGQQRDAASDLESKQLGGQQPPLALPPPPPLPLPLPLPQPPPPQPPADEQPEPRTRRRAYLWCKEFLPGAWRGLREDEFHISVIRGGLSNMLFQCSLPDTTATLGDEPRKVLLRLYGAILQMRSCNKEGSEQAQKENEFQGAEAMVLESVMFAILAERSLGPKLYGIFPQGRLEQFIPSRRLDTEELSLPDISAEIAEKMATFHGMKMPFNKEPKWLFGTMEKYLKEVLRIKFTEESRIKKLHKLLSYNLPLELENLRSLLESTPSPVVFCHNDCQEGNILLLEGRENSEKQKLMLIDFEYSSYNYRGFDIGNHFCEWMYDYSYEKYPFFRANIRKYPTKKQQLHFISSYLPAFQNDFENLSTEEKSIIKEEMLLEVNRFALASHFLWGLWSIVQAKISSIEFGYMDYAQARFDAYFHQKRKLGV

First: O=C(c1ccc(-c2ccccc2)cc1)C1CN2CCC1CC2 (stereo not drawn) [Compound I-14, (4-phenylphenyl)-quinuclidin-3-yl-methanone]
Second: CN(C)c1ccc(C(=O)C2CN3CCC2CC3)cc1 (stereo not drawn) [Compound I-1, (4-dimethylaminophenyl)-quinuclidin-3-yl-methanone]
The IC50 of the first is higher: 1000 to 50000 nM for the first, < 100 nM for the second.

`CN1CCOc2cc(C(=O)C3CN4CCC3CC4)ccc21` (stereo not drawn) [Compound I-5] and `O=C(c1ccc(N2CCCC2)cc1)C1CN2CCC1CC2` (stereo not drawn) [Compound I-3, (4-pyrrolidin-1-ylphenyl)-quinuclidin-3-yl-methanone] cannot be ordered by IC50: < 100 nM for the first, < 100 nM for the second.

same assay, conditions: 20 nM enzyme, 200 μM choline chloride, 400 μM ATP, 25° C.; read-out: IC50 values, Choline Kinase Alpha inhibition

`O=C(c1cccc(Cl)c1)C1CN2CCC1CC2` (stereo not drawn) [Compound I-33, (3-chlorophenyl)-quinuclidin-3-yl-methanone] and `O=C(c1cccc(F)c1)C1CN2CCC1CC2` (stereo not drawn) [Compound I-9, (3-fluorophenyl)-quinuclidin-3-yl-methanone] fall in the same range of IC50: 1000 to 50000 nM for the first, 1000 to 50000 nM for the second.

`O=C(Cc1ccccc1)C1CN2CCC1CC2` (stereo not drawn) [Compound I-6, 2-phenyl-1-(quinuclidin-3-yl)ethanone] and `O=C(c1ccccc1)C1CN2CCC1CC2` (stereo not drawn) [Compound I-35, phenyl(quinuclidin-3-yl)methanone] fall in the same range of IC50: 1000 to 50000 nM for the first, 1000 to 50000 nM for the second.

First: CC(O)c1ccc(C(=O)C2CN3CCC2CC3)cc1 (stereo not drawn) [Compound I-29, [4-(1-hydroxyethyl)phenyl]-quinuclidin-3-yl-methanone]
Second: CC(C)c1ccc(C(=O)C2CN3CCC2CC3)cc1 (stereo not drawn) [Compound I-36]
The IC50 of the first is higher: 1000 to 50000 nM for the first, 100 to 1000 nM for the second.

`Cc1ncccc1C(=O)C1CN2CCC1CC2` (stereo not drawn) [Compound I-24, (2-methyl-3-pyridyl)-quinuclidin-3-yl-methanone] and `Cc1ccccc1C(=O)C1CN2CCC1CC2` (stereo not drawn) [Compound I-31, o-tolyl(quinuclidin-3-yl)methanone] fall in the same range of IC50: 1000 to 50000 nM for the first, 1000 to 50000 nM for the second.

First: O=C(c1nc2ccccc2s1)C1CN2CCC1CC2 (stereo not drawn) [Compound I-22, benzo[d]thiazol-2-yl(quinuclidin-3-yl)methanone]
Second: O=C(c1ccc2ccccc2c1)C1CN2CCC1CC2 (stereo not drawn) [Compound I-8, 2-naphthyl(quinuclidin-3-yl)methanone]
The IC50 of the first is higher: 1000 to 50000 nM for the first, 100 to 1000 nM for the second.

`Cc1ccc(Cl)cc1C(=O)C1CN2CCC1CC2` (stereo not drawn) [Compound I-23, (5-chloro-2-methylphenyl)(quinuclidin-3-yl)methanone] and `Cc1cccc(C(=O)C2CN3CCC2CC3)c1C` (stereo not drawn) [Compound I-21, (2,3-dimethylphenyl)-quinuclidin-3-yl-methanone] fall in the same range of IC50: 1000 to 50000 nM for the first, 1000 to 50000 nM for the second.

`CN1CCN(C)c2cc(C(=O)C3CN4CCC3CC4)ccc21` (stereo not drawn) [Compound I-28, (1,4-dimethyl-2,3-dihydroquinoxalin-6-yl)-quinuclidin-3-yl-methanone] and `CN1CCc2cc(C(=O)C3CN4CCC3CC4)ccc21` (stereo not drawn) [Compound I-30] fall in the same range of IC50: 100 to 1000 nM for the first, 100 to 1000 nM for the second.

`O=C(c1ccc(F)cc1)C1CN2CCC1CC2` (stereo not drawn) [Compound I-10, (4-fluorophenyl)-quinuclidin-3-yl-methanone] and `O=C(c1ccc(Cl)cc1)C1CN2CCC1CC2` (stereo not drawn) [Compound I-34, (4-chlorophenyl)-quinuclidin-3-yl-methanone] fall in the same range of IC50: 1000 to 50000 nM for the first, 1000 to 50000 nM for the second.

`CCN(CC)c1ccc(C(=O)C2CN3CCC2CC3)cc1` (stereo not drawn) [Compound I-2, [4-(diethylamino)phenyl]-quinuclidin-3-yl-methanone] and `CCc1ccc(C(=O)C2CN3CCC2CC3)cc1` (stereo not drawn) [Compound I-16, (4-ethylphenyl)-quinuclidin-3-yl-methanone] fall in the same range of IC50: 100 to 1000 nM for the first, 100 to 1000 nM for the second.

`O=C(c1ccc(OC(F)(F)F)cc1)C1CN2CCC1CC2` (stereo not drawn) [Compound I-19, quinuclidin-3-yl-[4-(trifluoromethoxy)phenyl]methanone] and `COc1ccc(C(=O)C2CN3CCC2CC3)cc1` (stereo not drawn) [Compound I-7, (4-methoxyphenyl)-quinuclidin-3-yl-methanone] fall in the same range of IC50: 1000 to 50000 nM for the first, 1000 to 50000 nM for the second.

`O=C(c1cccc(-c2ccccc2)c1)C1CN2CCC1CC2` (stereo not drawn) [Compound I-18, (3-phenylphenyl)-quinuclidin-3-yl-methanone] and `O=C(c1cccc2ccccc12)C1CN2CCC1CC2` (stereo not drawn) [Compound I-17, 1-naphthyl(quinuclidin-3-yl)methanone] fall in the same range of IC50: 1000 to 50000 nM for the first, 1000 to 50000 nM for the second.

`Cc1cc(C(=O)C2CN3CCC2CC3)ccc1N(C)C` (stereo not drawn) [Compound I-27, (4-(dimethylamino)-3-methylphenyl)(quinuclidin-3-yl)methanone] and `CN(C)c1ccc(C(=O)C2CN3CCC2CC3)cc1Br` (stereo not drawn) [Compound I-25, [3-bromo-4-(dimethylamino)phenyl]-quinuclidin-3-yl-methanone] fall in the same range of IC50: 100 to 1000 nM for the first, 100 to 1000 nM for the second.

`COc1cc(OC)cc(C(=O)C2CN3CCC2CC3)c1` (stereo not drawn) [Compound I-12, (3,5-dimethoxyphenyl)-quinuclidin-3-yl-methanone] and `CN(C)c1c(Br)cc(C(=O)C2CN3CCC2CC3)cc1Br` (stereo not drawn) [Compound I-26, [3,5-dibromo-4-(dimethylamino)phenyl]-quinuclidin-3-yl-methanone] fall in the same range of IC50: 1000 to 50000 nM for the first, 1000 to 50000 nM for the second.

First: O=C(c1ccc(N2CCCCC2)cc1)C1CN2CCC1CC2 (stereo not drawn) [Compound I-4, [4-(1-piperidyl)phenyl]-quinuclidin-3-yl-methanone]
Second: Cc1ccc(C(=O)C2CN3CCC2CC3)cc1 (stereo not drawn) [Compound I-32, p-tolyl(quinuclidin-3-yl)methanone]
The IC50 of the first is lower: 100 to 1000 nM for the first, 1000 to 50000 nM for the second.

`CC(C)(C)c1ccc(C(=O)C2CN3CCC2CC3)cc1` (stereo not drawn) [Compound I-20, (4-tert-butylphenyl)-quinuclidin-3-yl-methanone] and `CCCc1ccc(C(=O)C2CN3CCC2CC3)cc1` (stereo not drawn) [Compound I-13, (4-propylphenyl)-quinuclidin-3-yl-methanone] fall in the same range of IC50: 100 to 1000 nM for the first, 100 to 1000 nM for the second.

`O=C(c1ccc2c(c1)OCO2)C1CN2CCC1CC2` (stereo not drawn) [Compound I-15, 1,3-benzodioxol-5-yl(quinuclidin-3-yl)methanone] and `O=C(c1ccc(F)c(Cl)c1)C1CN2CCC1CC2` (stereo not drawn) [Compound I-11, (3-chloro-4-fluoro-phenyl)-quinuclidin-3-yl-methanone] fall in the same range of IC50: 1000 to 50000 nM for the first, 1000 to 50000 nM for the second.
